Tested on: JAK1-dependent STAT6 phosphorylation downstream of IL-13 stimulation in TF-1 human erythroleukemia cells
Assay: cells
Settings: TF-1, read-out: IL-13-pSTAT6 IC50

Row | Structure (SMILES) | IC50
1 | O=C(CCC(F)(F)F)N1CC=C(c2cccn3nc(Nc4ccc(C(=O)N5CCOC6(CCNCC6)C5)cc4)nc23)CC1 [Example 2-254, 4,4,4-trifluoro-1-[4-[2-[4-(1-oxa-4,9-diazaspiro[5.5]undecane-4-carbonyl)anilino]-[1,2,4]triazolo[1,5-a]pyridin-8-yl]-3,6-dihydro-2H-pyridin-1-yl]butan-1-one] | 588 nM
2 | CC(C)CN1CCN(C(=O)c2ccc(Nc3nc4c(C5=CCN(C(=O)CCC(F)(F)F)CC5)cccn4n3)cc2)CC1 [Example 2-266, 4,4,4-trifluoro-1-[4-[2-[4-(4-isobutylpiperazine-1-carbonyl)anilino]-[1,2,4]triazolo[1,5-a]pyridin-8-yl]-3,6-dihydro-2H-pyridin-1-yl]butan-1-one] | 9.7 nM
3 | CN1CCC(NC(=O)c2ccc(Nc3nc4c(C5=CCN(C(=O)CCC(F)(F)F)CC5)cccn4n3)cc2)C1 (centres unmarked) [Example 2-459, N-(1-methylpyrrolidin-3-yl)-4-[[8-[1-(4,4,4-trifluorobutanoyl)-3,6-dihydro-2H-pyridin-4-yl]-[1,2,4]triazolo[1,5-a]pyridin-2-yl]amino]benzamide] | 20.5 nM
4 | NCC12CC(CN1C(=O)c1ccc(Nc3nc4c(C5=CCN(C(=O)CCC(F)(F)F)CC5)cccn4n3)cc1)C2 [Example 2-452, 1-[4-[2-[4-[4-(aminomethyl)-3-azabicyclo[2.1.1]hexane-3-carbonyl]anilino]-[1,2,4]triazolo[1,5-a]pyridin-8-yl]-3,6-dihydro-2H-pyridin-1-yl]-4,4,4-trifluoro-butan-1-one] | 134 nM
5 | O=C(CCC(F)(F)F)N1CC=C(c2cccn3nc(Nc4ccc(C(=O)N5C[C@@H]6CCN[C@@H]6C5)cc4)nc23)CC1 [Example 2-387, 1-[4-[2-[4-[(3aS,6aS)-2,3,3a,4,6,6a-hexahydro-1H-pyrrolo[2,3-c]pyrrole-5-carbonyl]anilino]-[1,2,4]triazolo[1,5-a]pyridin-8-yl]-3,6-dihydro-2H-pyridin-1-yl]-4,4,4-trifluoro-butan-1-one] | 147 nM
6 | O=C(NC1CCCNC1)c1ccc(Nc2nc3c(N4CCC(O)(c5ccc(Cl)cc5)CC4)cccn3n2)cc1 (centres unmarked) [Example 1-179, 4-[[8-[4-(4-chlorophenyl)-4-hydroxy-1-piperidyl]-[1,2,4]triazolo[1,5-a]pyridin-2-yl]amino]-N-(3-piperidyl)benzamide] | 84.3 nM
7 | O=C(NCC1CCCN1)c1ccc(Nc2nc3c(C4=CCN(C(=O)CCC(F)(F)F)CC4)cccn3n2)cc1 (centres unmarked) [Example 2-317, N-(pyrrolidin-2-ylmethyl)-4-[[8-[1-(4,4,4-trifluorobutanoyl)-3,6-dihydro-2H-pyridin-4-yl]-[1,2,4]triazolo[1,5-a]pyridin-2-yl]amino]benzamide] | 228 nM
8 | CC1CC1C(=O)N1CC=C(c2cccn3nc(Nc4ccc(C(=O)N(C)C5CCN(C)CC5)cc4)nc23)CC1 (centres unmarked) [Example 2-223, N-methyl-4-[[8-[1-(2-methylcyclopropanecarbonyl)-3,6-dihydro-2H-pyridin-4-yl]-[1,2,4]triazolo[1,5-a]pyridin-2-yl]amino]-N-(1-methyl-4-piperidyl)benzamide] | 17.3 nM
9 | CN(C)C1CCN(C(=O)c2ccc(Nc3nc4c(N5CCC(O)(c6ccc(Cl)cc6)CC5)cccn4n3)cc2)CC1 [Example 1-86, [4-[[8-[4-(4-chlorophenyl)-4-hydroxy-1-piperidyl]-[1,2,4]triazolo[1,5-a]pyridin-2-yl]amino]phenyl]-[4-(dimethylamino)-1-piperidyl]methanone] | 21.3 nM
10 | CCOC(=O)N1CC=C(c2cccn3nc(Nc4ccc(C(=O)N5CC6(CCN(C)CC6)C5)cc4)nc23)CC1 [Example 2-175, ethyl 4-[2-[4-(7-methyl-2,7-diazaspiro[3.5]nonane-2-carbonyl)anilino]-[1,2,4]triazolo[1,5-a]pyridin-8-yl]-3,6-dihydro-2H-pyridine-1-carboxylate] | 12.2 nM
11 | CCOC(=O)N1CC=C(c2cccn3nc(Nc4ccc(C(=O)N5CCCCC5Cc5ccccn5)cc4)nc23)CC1 (centres unmarked) [Example 2-235, ethyl 4-[2-[4-[2-(2-pyridylmethyl)piperidine-1-carbonyl]anilino]-[1,2,4]triazolo[1,5-a]pyridin-8-yl]-3,6-dihydro-2H-pyridine-1-carboxylate] | 23.1 nM
12 | O=C(CCC(F)(F)F)N1CC=C(c2cccn3nc(Nc4ccc(C(=O)N5CCN(C6CCC6)CC5)cc4)nc23)CC1 [Example 2-260, 1-[4-[2-[4-(4-cyclobutylpiperazine-1-carbonyl)anilino]-[1,2,4]triazolo[1,5-a]pyridin-8-yl]-3,6-dihydro-2H-pyridin-1-yl]-4,4,4-trifluoro-butan-1-one] | 5.3 nM
13 | O=C(CCC(F)(F)F)N1CC=C(c2cccn3nc(Nc4ccc(C(=O)N5CCN(C6CC6)CC5)cc4)nc23)CC1 [Example 2-202, 1-[4-[2-[4-(4-cyclopropylpiperazine-1-carbonyl)anilino]-[1,2,4]triazolo[1,5-a]pyridin-8-yl]-3,6-dihydro-2H-pyridin-1-yl]-4,4,4-trifluoro-butan-1-one] | 11.5 nM
14 | Cn1ccnc1CN1CCN(C(=O)c2ccc(Nc3nc4c(C5=CCN(C(=O)CCC(F)(F)F)CC5)cccn4n3)cc2)CC1 [Example 2-203, 4,4,4-trifluoro-1-[4-[2-[4-[4-[(1-methylimidazol-2-yl)methyl]piperazine-1-carbonyl]anilino]-[1,2,4]triazolo[1,5-a]pyridin-8-yl]-3,6-dihydro-2H-pyridin-1-yl]butan-1-one] | 30.1 nM
15 | CN1CCN(C(=O)C2COCCN2C(=O)c2ccc(Nc3nc4c(C5=CCN(C(=O)CCC(F)(F)F)CC5)cccn4n3)cc2)CC1 (centres unmarked) [Example 2-262, 4,4,4-trifluoro-1-[4-[2-[4-[3-(4-methylpiperazine-1-carbonyl)morpholine-4-carbonyl]anilino]-[1,2,4]triazolo[1,5-a]pyridin-8-yl]-3,6-dihydro-2H-pyridin-1-yl]butane-1-one] | 97.1 nM
16 | CNC(=O)CC1(c2ccc(Cl)cc2)CCN(c2cccn3nc(Nc4ccc(C(=O)N(C)C5CCN(C)CC5)cc4)nc23)CC1 [Example 1-299, 4-[[8-[4-(4-chlorophenyl)-4-[2-(methylamino)-2-oxo-ethyl]-1-piperidyl]-[1,2,4]triazolo[1,5-a]pyridin-2-yl]amino]-N-methyl-N-(1-methyl-4-piperidyl)benzamide] | 55.7 nM
17 | O=C(CCC(F)(F)F)N1CC=C(c2cccn3nc(Nc4ccc(C(=O)N5CCC(Cc6ccccn6)CC5)cc4)nc23)CC1 [Example 2-404, 4,4,4-trifluoro-1-[4-[2-[4-[4-(2-pyridylmethyl)piperidine-1-carbonyl]anilino]-[1,2,4]triazolo[1,5-a]pyridin-8-yl]-3,6-dihydro-2H-pyridin-1-yl]butan-1-one] | 13.2 nM
18 | CN1CCC(N(C)C(=O)c2ccc(Nc3nc4c(C5=CCN(C(=O)C6CC6)CC5)cccn4n3)cc2)CC1 [Example 2-409, 4-[[8-[1-(cyclopropanecarbonyl)-3,6-dihydro-2H-pyridin-4-yl]-[1,2,4]triazolo[1,5-a]pyridin-2-yl]amino]-N-methyl-N-(1-methyl-4-piperidyl)benzamide] | 124 nM
19 | O=C(CCC(F)(F)F)N1CC=C(c2cccn3nc(Nc4ccc(C(=O)N5CCC6(CCN6)CC5)cc4)nc23)CC1 [Example 2-197, 1-[4-[2-[4-(1,7-diazaspiro[3.5]nonane-7-carbonyl)anilino]-[1,2,4]triazolo[1,5-a]pyridin-8-yl]-3,6-dihydro-2H-pyridin-1-yl]-4,4,4-trifluoro-butan-1-one] | 295 nM
20 | CN(C)c1cc(CC2CCN(C(=O)c3ccc(Nc4nc5c(C6=CCN(C(=O)CCC(F)(F)F)CC6)cccn5n4)cc3)C2)ncn1 (centres unmarked) [Example 2-217, 1-[4-[2-[4-[3-[[6-(dimethylamino)pyrimidin-4-yl]methyl]pyrrolidine-1-carbonyl]anilino]-[1,2,4]triazolo[1,5-a]pyridin-8-yl]-3,6-dihydro-2H-pyridin-1-yl]-4,4,4-trifluoro-butan-1-one] | 9.5 nM
21 | CCOC(=O)N1CC=C(c2cccn3nc(Nc4ccc(C(=O)N5CC6(CN(C(C)=O)C6)C5)cc4)nc23)CC1 [Example 2-432, ethyl 4-[2-[4-(6-acetyl-2,6-diazaspiro[3.3]heptane-2-carbonyl)anilino]-[1,2,4]triazolo[1,5-a]pyridin-8-yl]-3,6-dihydro-2H-pyridine-1-carboxylate] | 43 nM
22 | CNC(=O)C1CN(C)CCN1C(=O)c1ccc(Nc2nc3c(N4CCC(O)(c5ccc(Cl)cc5)CC4)cccn3n2)cc1 (centres unmarked) [Example 1-152, 1-[4-[[8-[4-(4-chlorophenyl)-4-hydroxy-1-piperidyl]-[1,2,4]triazolo[1,5-a]pyridin-2-yl]amino]benzoyl]-N,4-dimethyl-piperazine-2-carboxamide] | 65 nM
23 | NCCNC(=O)c1ccc(Nc2nc3c(C4=CCN(C(=O)CCC(F)(F)F)CC4)cccn3n2)cc1 [Example 2-194, N-(2-aminoethyl)-4-[[8-[1-(4,4,4-trifluorobutanoyl)-3,6-dihydro-2H-pyridin-4-yl]-[1,2,4]triazolo[1,5-a]pyridin-2-yl]amino]benzamide] | 94.2 nM
24 | O=C(NCCc1cccnc1)c1ccc(Nc2nc3c(C4=CCN(C(=O)CCC(F)(F)F)CC4)cccn3n2)cc1 [Example 2-220, N-[2-(3-pyridyl)ethyl]-4-[[8-[1-(4,4,4-trifluorobutanoyl)-3,6-dihydro-2H-pyridin-4-yl]-[1,2,4]triazolo[1,5-a]pyridin-2-yl]amino]benzamide] | 5.8 nM
25 | O=C(NCCN1CCC(O)CC1)c1ccc(Nc2nc3c(C4=CCN(C(=O)CCC(F)(F)F)CC4)cccn3n2)cc1 [Example 2-100, N-[2-(4-hydroxy-1-piperidyl)ethyl]-4-[[8-[1-(4,4,4-trifluorobutanoyl)-3,6-dihydro-2H-pyridin-4-yl]-[1,2,4]triazolo[1,5-a]pyridin-2-yl]amino]benzamide] | 84.7 nM
26 | CN1CCC(N(C)C(=O)c2ccc(Nc3nc4c(C5=CCN(C(=O)OC6CC6)CC5)cccn4n3)cc2)CC1 [Example 2-2, cyclopropyl 4-[2-[4-[methyl-(1-methyl-4-piperidyl)carbamoyl]anilino]-[1,2,4]triazolo[1,5-a]pyridin-8-yl]-3,6-dihydro-2H-pyridine-1-carboxylate] | 34 nM

Reference: patent US9873709B2 (priority 2013, dated 2018)
